Measurements published in article PMC7933229 (Scientific Reports, 2021).
Where two headings read alike, the source gives them in different places. Residues, ends and D or L forms follow the SMILES beside them.

T1: ACE (from rabbit lung) (Oryctolagus cuniculus, UniProt P12822)
T1 construct: ACE (from rabbit lung) were obtained from Sigma-Aldrich Co; purchased Sigma-Aldrich Co. (St. Louis, MO, USA); host or cells: rabbit lung (tissue-derived enzyme)
T1 sequence (P12822 34-1310): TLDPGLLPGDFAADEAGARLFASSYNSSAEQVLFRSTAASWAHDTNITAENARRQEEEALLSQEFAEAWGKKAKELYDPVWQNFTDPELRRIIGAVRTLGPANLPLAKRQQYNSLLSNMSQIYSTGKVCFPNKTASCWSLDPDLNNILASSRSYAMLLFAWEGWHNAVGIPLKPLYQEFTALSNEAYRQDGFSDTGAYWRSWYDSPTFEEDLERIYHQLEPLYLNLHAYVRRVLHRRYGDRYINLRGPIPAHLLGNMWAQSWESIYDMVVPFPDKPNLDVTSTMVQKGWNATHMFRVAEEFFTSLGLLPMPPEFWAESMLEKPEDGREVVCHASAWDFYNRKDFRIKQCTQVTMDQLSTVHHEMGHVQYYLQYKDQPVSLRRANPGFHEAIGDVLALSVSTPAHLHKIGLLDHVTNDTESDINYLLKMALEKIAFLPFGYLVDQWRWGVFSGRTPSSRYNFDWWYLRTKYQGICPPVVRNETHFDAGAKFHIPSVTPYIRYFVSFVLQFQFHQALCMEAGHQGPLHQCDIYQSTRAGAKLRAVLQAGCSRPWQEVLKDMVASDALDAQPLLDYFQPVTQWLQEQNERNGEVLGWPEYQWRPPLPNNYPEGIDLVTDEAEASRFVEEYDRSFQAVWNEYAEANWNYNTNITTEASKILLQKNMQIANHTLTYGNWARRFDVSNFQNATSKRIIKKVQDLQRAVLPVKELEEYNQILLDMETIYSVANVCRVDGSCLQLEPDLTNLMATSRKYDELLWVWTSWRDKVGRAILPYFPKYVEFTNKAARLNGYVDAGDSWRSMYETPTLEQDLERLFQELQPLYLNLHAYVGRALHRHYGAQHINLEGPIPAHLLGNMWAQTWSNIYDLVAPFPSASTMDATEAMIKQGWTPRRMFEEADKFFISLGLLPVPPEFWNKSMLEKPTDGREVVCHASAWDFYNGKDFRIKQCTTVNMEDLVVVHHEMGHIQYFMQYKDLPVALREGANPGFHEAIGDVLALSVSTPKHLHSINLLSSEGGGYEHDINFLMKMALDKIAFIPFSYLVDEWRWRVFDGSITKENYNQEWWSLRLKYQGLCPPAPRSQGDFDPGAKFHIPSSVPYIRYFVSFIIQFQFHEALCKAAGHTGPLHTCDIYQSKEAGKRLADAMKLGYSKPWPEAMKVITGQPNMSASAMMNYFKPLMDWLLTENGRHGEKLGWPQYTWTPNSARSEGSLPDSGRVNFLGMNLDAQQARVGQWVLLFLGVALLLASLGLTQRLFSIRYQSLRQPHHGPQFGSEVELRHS

T2: angiotensin I-converting enzyme (ACE) from rabbit lung (rabbit) (UniProt P12822)
T2 sequence: T1 sequence (P12822 34-1310)


Tests used:
ACE (from rabbit lung) = biological target: T1, ACE (from rabbit lung); assay: ACE inhibitory activity (HHL substrate, RP-HPLC of hippuric acid); assay type: biochemical
From the text: Wheat gluten was obtained from CF Haishi Biotechnology Ltd. Co. (Beijing, China) and kept in sealed plastic bags at room temperature until use. Alcalase 2.4L (2.4 AU/g) was purchased from Novo Nordisk (Copenhagen, Denmark). Protex 7L (1600 AU/g) and α-amylase (26,000 RAU/g) were bought from Genencor Division of Danisco (Rochester, NY, USA). Fluorescein sodium salt, Trolox, DPPH, 2,2′-azobis(2-methylpropionamidine) dihydrochloride (AAPH), hippuryl-histidyl-leucine (HHL), hippuric acid (HA), and ACE (from rabbit lung) were obtained from Sigma-Aldrich Co. (St. Louis, MO, USA). The ABTS assay kit was supplied by Beyotime Biotechnology (Haimen, China). Acetonitrile and methanol were provided by Fisher Scientific (Pittsburgh, PA, USA). Trifluoroacetic acid (TFA) was supplied by Alfa Aesar (Ward Hill, MA, USA). Synthesized peptides were obtained from Scilight Biotechnology Co., Ltd (Beijing, China). The purity of the synthesized peptides was more than 98% according to HPLC analysis. All other chemicals were of analytical grade.
The modified approach of Cushman and Cheung[68] was used to analyze ACE inhibitory activity. Briefly, the preincubation of 20 µL of sample and 30 µL of ACE solution (60 mU/mL) was performed at 37 °C for 5 min. After adding 50 µL of the substrate (7.6 mmol/L HHL in 50 mmol/L sodium borate buffer containing 300 mmol/L NaCl at pH 8.3), the 30-min incubation of the mixture was performed at ambient temperature. The reaction was ceased with 100 µL of 1.0 mol/L HCl. RP-HPLC was employed to determine the amount of HA liberated by ACE on an Inertsil ODS-SP C18 column (4.6 mm × 150 mm, Shimadzu, Kyoto, Japan). The peak area was subject to the calculation of ACE inhibitory activity.

ACE = settings: cited from earlier work
[1] = biological target: T2, angiotensin I-converting enzyme (ACE) from rabbit lung (rabbit)
[2] = calculated from mmol/L values, read-out: ACE IC50 calculated in the units of mg/mL (converted)
[3] = synthesized peptides, read-out: ACE IC50

IC50 (ACE (from rabbit lung); [2]) [µM] | IC50 (ACE (from rabbit lung); [3]) [µM] | IC50 of ACE inhibitory activity (hippuric acid liberated from HHL by ACE, RP-HPLC) [1] [µM] | Molecule | further results
1480 | 1480 ± 110 |  | N=C(N)NCCC[C@H](N)C(=O)NCC(=O)NCC(=O)N[C@@H](Cc1ccc(O)cc1)C(=O)O [Arg-Gly-Gly-Tyr] (H-RGGY-OH) | 
599 | 600 ± 30 |  | CC(C)C[C@H](N)C(=O)N[C@H](C(=O)N[C@@H](CO)C(=O)O)C(C)C [Leu-Val-Ser] (H-Leu-Val-Ser-OH) | 
2000 | 2000 ± 130 |  | NC(=O)CC[C@H](NC(=O)[C@@H](N)Cc1ccc(O)cc1)C(=O)O [Tyr-Gln] (H-Tyr-Gln-OH) | 
 |  | 310 | Leu-Tyr (peptide) | 
 |  | 600 | Leu-Val-Ser (peptide) | 
 |  | 2000 | Tyr-Gln (peptide) | 

Second part, the molecule before the results:

Molecule | IC50 (ACE (from rabbit lung); [2]) [µM] | IC50 (ACE (from rabbit lung); [3]) [µM] | IC50 of ACE inhibitory activity (hippuric acid liberated from HHL by ACE, RP-HPLC) [1] [µM] | further results
C[C@H](N)C(=O)N1CCC[C@H]1C(=O)N[C@@H](CO)C(=O)N[C@@H](Cc1ccc(O)cc1)C(=O)O [Ala-Pro-Ser-Tyr] (H-APSY-OH) | 1470 | 1470 ± 80 |  | 
Ala-His-Ser-Tyr (AHSY; printed: Ala-His-Ser-Tyr) |  |  |  | IC50 (ACE; isolated from cuttlefish): 11.6 µM
Gly-Gly-Tyr |  |  |  | IC50 (ACE): 1.3 µM
APSY [Ala-Pro-Ser-Tyr] |  |  | 1470 | 
RGGY [Arg-Gly-Gly-Tyr] |  |  | 1480 | 
